Laboratory results taken from patent US6455286B1, “Psoralens for pathogen inactivation” (Cerus Corporation, priority 1997, dated 2002).
“Also recorded” adds a separate entry of the source.

Key:
R17 = R17 bacteriophage screen (photoinactivation, plaque assay on Hfr 3000 bacteria); format: cell-based; conditions: for Average log Inactivation, 4 μM: compound at 4 μM; for Average log Inactivation, 4 μM / Average log Inactivation, 32 μM: 15% FBS in DMEM, UVA 1 J/cm^2, average of 1-4 replicates; for Average log Inactivation, 32 μM: compound at 32 μM
Text: A discussion of inactivation of pathogens other than the R17 model discussed below can be found in U.S. Pat. No. 5,593,823. This reference enables the selection criteria for use in pathogen inactivation of blood products for the compounds of the present invention. The screening technique used to evaluate the compounds of the present invention is to perform a bacteriophage screen; an assay which determines nucleic acid binding of test compounds. A screen of this type, an R17 screen, is described in detail in EXAMPLE 13, below.
The R17 bacteriophage screen is believed to be predictive of HIV inactivation efficiency, as well as the efficiency of compounds against many other viruses. It is a small, single stranded RNA phage. […] Further, single stranded RNA pathogens are more difficult to inactivate because psoralens can neither intercalate between base pairs, as with double-stranded nucleic acids, nor form diadducts which function as interstrand crosslinks. Thus it is expected that when inactivation of R17 is achieved, these same conditions will cause the inactivation of many viruses and bacteria.
The R17 was grown up in Hfr 3000 bacteria, approximate titer 5×10^11. (R17 and Hfr 3000 were obtained from American Tissue Culture Collection (ATCC), Washington, D.C.) The R17 phage stock was added to a solution of 15% fetal bovine serum in DMEM to a final phage concentration of 10^8/mL. An aliquot (0.5 mL) was transferred to a 1.5 mL snap-top polyethylene tube. An aliquot (0.004-0.040 mL) of the test compound stock solution prepared in water, ethanol or dimethylsulfoxide at 0.5 mM was added to the tube. Compounds were tested at concentrations between 4 μM and 32 μM. (AMT is commercially available from HRI, Inc., Concord, Calif.; 8-MOP is commercially available from Sigma, St. Louis, Mo.). The tubes were placed in a light device similar to that described in U.S. Pat. No. 5,593,823 (Baxter Ultraviolet Irradiation System, modified #4R4440) and irradiated at a dose setting of 1 J/cm^2. Sterile 13 mL dilution tubes were prepared; each test compound required one tube with 0.4 mL of LB broth and five tubes containing 0.5 mL of LB broth. To make the dilutions, a 0.100 mL aliquot of the irradiated solution of phage and test compound was added to the first dilution tube of 0.4 mL of media then 0.020 mL of this solution was added to the second tube of 0.5 mL medium (1:25). The second solution was then diluted serially (1:25) into the remaining tubes. To each diluted sample was added 0.050 mL of Hfr 3000 bacteria cultured overnight and 3 mL of molten LB top agar and the mixed materials were poured onto LB broth plates. After the top agar hardened, the plates were incubated at 37° C. overnight. The plaque forming units were then counted the following morning and the titer of the phage remaining after phototreatment was calculated based on the dilution factors.
The following controls were run: the “phage only” in which phage was not treated with test compound and not irradiated (listed as “starting titer” in the tables below); and the “dark” control in which the phage/test compound solution was not irradiated before it was diluted and plated. A “UV only” control in which the phage was illuminated without treatment with test compound was not run with these experiments.

[1] = Ames assay / bacterial assays, absence of light; cited from earlier work
DNA = conditions: cited from earlier work
cell-free HIV (HIV-1) = experiment: Inactivation of cell-free HIV, residual infectivity by MT-2 microtiter plaque assay; format: cell-based; conditions: compound at 32 μM; 1 minute irradiation 320-400 nm (20 mW/cm^2); DMEM/15% FBS
Experimental: Pathogen inactivation efficiency of three compounds tested in the previous example were evaluated by examining the ability of the compounds to inactivate cell-free virus (HIV). Inactivation of cell-free HIV was performed as follows.
Small aliquots of the compounds were added to stock HIV-1 to a compound concentration of 32 μM in a total of 0.5 mL. The stock HIV (10^5-10^7 plaque forming units/mL) was in DMEM/15% FBS. The 0.5 mL test aliquots were placed in 24 well polystyrene tissue culture plates and irradiated with 320-400 nm (20 mW/cm^2) for 1 minute on a device similar to the device of EXAMPLE 13. Controls included HIV-1 stock only, HIV-1 plus UVA only, and HIV-1 plus the highest concentration of each psoralen tested, with no UVA. Post irradiation, all samples were stored frozen at −70° C. until assayed for infectivity by a microtiter plaque assay. Aliquots for measurement of residual HIV infectivity in the samples were withdrawn and cultured.
Residual HIV infectivity was assayed using an MT-2 infectivity assay. (Previously described in Hanson, C. V., Crowford-Miksza, L. and Sheppard, H. W., J. Clin. Micro 28:2030 (1990)). The assay medium was 85% DMEM (with a high glucose concentration) containing 100 μg of streptomycin, 100 U of penicillin, 50 μg of gentamicin, and 1 μg of amphotericin B per mL, 15% FBS and 2 μg of Polybrene (Sigma Chemical Co., St. Louis, Mo.) per mL. Test and control samples from the inactivation procedure were diluted in a mixture of 50% assay medium and 50% normal human serum. The samples were serially diluted directly in 96-well plates (Corning Glass Works, corning, N.Y.). The plates were mixed on an oscillatory shaker for 30 seconds and incubated at 37° C. in a 5% CO2 atmosphere for 1 to 18 hours. […] After 24 to 48 hours, the orange fluorescence-stained microplaques were visualized by placing the plates on an 8,000 μW/cm^2 304 nm UV light box (Fotodyne, Inc., New Berlin, Wis.). The plaques were counted at a magnification of ×20 to ×25 through a stereomicroscope.

Row | Compound | Average log Inactivation, 4 μM (R17) | Average log Inactivation, 32 μM (R17) | further results
1 | Cc1cc2cc3c(C)c(COCCN)c(=O)oc3c(C)c2o1 [3-(4-amino-2-oxa)butyl-4,5′,8-trimethylpsoralen] | – | – | Effectiveness of R17 inactivation relative to AMT (R17; similar inactivation at less than half the AMT concentration, data not shown): at least twice as effective as AMT
2 | Cc1oc2c(C)c3oc(=O)cc(C)c3cc2c1CN [AMT, 4′-aminomethyl-4,5′,8-trimethylpsoralen, reference compound] | 1.6 log | >6.5 log | Mutagenicity [1]: highly mutagenic; also recorded: significant levels of mutagenicity
3 | COc1c2occc2cc2ccc(=O)oc12 [Compound 8-MOP, 8-methoxypsoralen] | – | – | Photoactivated binding to nucleic acids (DNA): relatively low; Mutagenicity [1]: low mutagenicity
4 | Cc1coc2c(C)c3oc(=O)c(CN)c(C)c3cc12.Cl [Compound 31, 3-aminomethyl-4,4′,8-trimethylpsoralen hydrochloride] | 3.1 log | – | Log Kill of cell-free HIV (cell-free HIV (HIV-1)): 1.9 log
5 | Cc1oc2c(CN)c3oc(=O)cc(C)c3cc2c1C [Compound 32, 8-aminomethyl-4,4′,5′-trimethylpsoralen] | 1.1 log | – | Log Kill of cell-free HIV (cell-free HIV (HIV-1)): 1.1 log
6 | Cc1cc2cc3c(C)cc(=O)oc3c(CN)c2o1.Cl [Compound 33, 8-aminomethyl-4,5′-dimethylpsoralen hydrochloride] | 0.4 log | 1.7 log | –
7 | Cc1oc2c(C)c3oc(=O)c(CN)c(C)c3cc2c1C [Compound 34, 3-aminomethyl-4,4′,5′,8-tetramethylpsoralen] | 1.4 log | – | Log Kill of cell-free HIV (cell-free HIV (HIV-1)): 3.5 log
8 | Cc1cc2cc3c(C)c(CCN)c(=O)oc3c(C)c2o1 [Compound 35, 3-amino ethyl-4,5′,8-trimethylpsoralen] | 1.6 log | – | –
9 | Cc1oc2c(C)c3oc(=O)cc(CN)c3cc2c1C [Compound 36, 4-aminomethyl-4′,5′,8-trimethylpsoralen] | 0.1 log | 1.1 log | –
10 | Cc1coc2c(C)c3oc(=O)c(COCCN)c(C)c3cc12 [Compound 37, 3-(4-amino-2-oxa)butyl-4,4′,8-trimethylpsoralen] | 4.3 log | >6.5 log | –
11 | Cc1oc2c(C)c3oc(=O)cc(COCCN)c3cc2c1C [Compound 38, 4-(4-Amino-2-oxa)butyl-4′,5′,8-trimethylpsoralen] | 2.2 log | ≧4.0 log | –
12 | Cc1oc2cc3oc(=O)ccc3c(COCCN)c2c1C [Compound 39, 5-(4-amino-2-oxa)butyl-4′,5′-dimethylpsoralen] | 1.6 log | >6.6 log | –
13 | Cc1oc2c(COCCN)c3oc(=O)cc(C)c3cc2c1C [Compound 40, 8-(4-amino-2-oxa)butyl-4,4′,5′-trimethylpsoralen] | 2.1 log | >6.3 log | –
14 | Cc1coc2cc3oc(=O)c(CN)cc3cc12 [Compound 41, 3-aminomethyl-4′-methylpsoralen] | 0 log | 0.6 log | –
15 | Cc1coc2cc3oc(=O)cc(CN)c3cc12 [Compound 42, 4-aminomethyl-4′-methylpsoralen] | 0 log | 1.2 log | –
